Laboratory results reported in patent US20060030611A1, “Enoximone sulfoxide enantiomers and their use in the treatment of PDE-III mediated diseases” (Myogen, Inc., priority 2004, published 2006).
pIC50: −log10 of the molar value. Where two headings read alike, the source gives them in different places.

Legend:
[1] = molecular target: T1, PDE-III isolated from human platelets (Homo sapiens, UniProt Q14432); assay: PDE-III inhibition, [3H]cAMP substrate; assay type: biochemical; details: triplicate at three concentrations over log scale, semi-quantitative
T1 construct: PDE-III isolated from human platelets; from tissue; host or cells: human platelets
Protocol: Enoximone Sulfoxide enantiomer was tested for its ability to inhibit the action of PDE-III isolated from human platelets. The substrate was [^3H]cAMP+cAMP, which is converted by PDE-III to […] and then […] can be quantified. Assays were done in triplicate at three different concentrations over log scale, allowing semi-quantitative measurement of IC50.

[2] = test system: trabeculae from the right ventricular free wall of explanted human hearts; assay: Peak contractile force of isolated human right ventricular trabeculae in muscle bath; assay type: cell-based; details: 37° C., 1.0 Hz field stimulation, increasing concentrations
Protocol: Explanted human hearts were obtained from transplant recipients (n=7) and from nonfailing donor hearts (n=1). After excision, hearts were placed immediately into ice cold Tyrode's solution and aerated with 95% O2 and 5% CO2. Trabeculae between 1-3 mm in width and 7-10 mm in length were excised from the right ventricular free wall. Subsequently trabeculae were mounted in a multi-chamber muscle bath in oxygenated Tyrode's solution at 37° C. The trabeculae were placed under 1 gram of resting tension and a field stimulation of 1.0 Hz. […] Peak contractile forces were recorded at 10 minute intervals for a total of 1½ hours. Following experimentation, trabeculae were frozen in liquid N2.

PDE-III = details: cited from earlier work
men who suffer from ED = details: ED of psychogenic or organic etiology, clinical studies; cited from earlier work
[3] = cited from earlier work; for average steady-state plasma concentration: oral

T1 sequence (Q14432 whole entry): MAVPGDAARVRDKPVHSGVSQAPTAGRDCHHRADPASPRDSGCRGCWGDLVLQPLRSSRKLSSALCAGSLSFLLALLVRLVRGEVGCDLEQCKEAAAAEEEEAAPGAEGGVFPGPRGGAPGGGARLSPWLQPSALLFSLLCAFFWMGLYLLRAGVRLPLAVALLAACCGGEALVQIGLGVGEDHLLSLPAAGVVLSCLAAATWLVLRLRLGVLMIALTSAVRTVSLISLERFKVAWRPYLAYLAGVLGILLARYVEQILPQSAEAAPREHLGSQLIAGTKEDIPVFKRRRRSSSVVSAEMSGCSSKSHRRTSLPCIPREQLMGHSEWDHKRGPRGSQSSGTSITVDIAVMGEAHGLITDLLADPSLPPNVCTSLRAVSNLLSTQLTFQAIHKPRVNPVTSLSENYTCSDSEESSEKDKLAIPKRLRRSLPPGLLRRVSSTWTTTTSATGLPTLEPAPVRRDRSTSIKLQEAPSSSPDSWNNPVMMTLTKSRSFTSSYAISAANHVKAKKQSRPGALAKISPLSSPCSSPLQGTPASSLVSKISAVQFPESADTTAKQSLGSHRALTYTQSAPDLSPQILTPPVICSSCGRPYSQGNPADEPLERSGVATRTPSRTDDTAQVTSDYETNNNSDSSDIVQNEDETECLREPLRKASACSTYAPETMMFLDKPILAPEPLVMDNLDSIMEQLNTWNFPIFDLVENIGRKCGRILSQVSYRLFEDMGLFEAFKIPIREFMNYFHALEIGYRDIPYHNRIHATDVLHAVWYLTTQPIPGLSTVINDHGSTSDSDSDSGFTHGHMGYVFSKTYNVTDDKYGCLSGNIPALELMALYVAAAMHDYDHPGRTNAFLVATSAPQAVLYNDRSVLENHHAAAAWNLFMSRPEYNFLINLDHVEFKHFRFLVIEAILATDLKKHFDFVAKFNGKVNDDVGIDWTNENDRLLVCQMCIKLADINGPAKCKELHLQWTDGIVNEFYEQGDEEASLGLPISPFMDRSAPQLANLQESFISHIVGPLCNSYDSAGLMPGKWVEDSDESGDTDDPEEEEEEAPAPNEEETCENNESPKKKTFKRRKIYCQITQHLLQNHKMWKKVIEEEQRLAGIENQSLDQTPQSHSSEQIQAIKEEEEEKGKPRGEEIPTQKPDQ

Cc1[nH]c(=O)[nH]c1C(=O)c1ccc([S@@+](C)[O-])cc1 [(R)-(+)-enantiomer of enoximone sulfoxide, 1,3-Dihydro-4-methyl-5-[(4-methylsulfinyl)-benzoyl]-2H-imidazol-2-one hydrate]
pIC50 [1]: 3.97 | peak contractile force (net, T=0 baseline subtracted) [2]: 550 mg of tension

CC(C)NCC(O)c1ccc(O)c(O)c1 (stereo not shown) [Isoproterenol]
peak contractile force (net, T=0 baseline subtracted) [2]: > 1000 mg of tension

Cc1[nH]c(=O)[nH]c1C(=O)c1ccc([S+](C)[O-])cc1.O (stereo not shown) [Sulfoxide Metabolite 27996, 1,3-Dihydro-4-methyl-5-[(4-methylsulfinyl)-benzoyl]-2H-imidazol-2-one hydrate]
peak contractile force (net, T=0 baseline subtracted) [2]: 175 mg of tension

CCCc1nn(C)c2c(=O)[nH]c(-c3cc(S(=O)(=O)N4CCN(C)CC4)ccc3OCC)nc12 [sildenafil, 5-[2-ethoxy-5-(4-methylpiperazin-1-ylsulphonyl)phenyl]-1-methyl-3-n-propyl-6,7-dihydro-1H-pyrazolo[4,3-d]pyrimidin-7-one]
inhibition of PDE-III (PDE-III): negligible inhibition | men with improved sexual function (men who suffer from ED): about 70%

CSc1ccc(C(=O)c2[nH]c(=O)[nH]c2C)cc1 [Enoximone, 1,3-Dihydro-4-methyl-5-[4-(methylthio)benzoyl]-2H-imidazol-2-one]
average steady-state plasma concentration ([3]; 50 mg every 8 hours): 115 ± 40 ng/mL | average steady-state plasma concentration ([3]; 100 mg every 8 hours): 190 ± 78 ng/mL | mean clearance ([3]; patients with cardiac failure): about 10 ml/min/kg | Bioavailability ([3]; single oral dose of 3 mg/kg): about 55%
